Measurements reported in US8420696B2, “Use of low-dose ladostigil for neuroprotection” (priority 2005, dated 2013).
“And” between values parts separate entries of the source, which are not always exact repeats. Equal values may be shown once.

Columns and labels:
[1] = system: dopaminergic neuroblastoma SH-SY5Y cells; details: cited from earlier work
[2] = system: nitrotyrosine immunoreactivity in astrocytes; assay: Example 1: nitrotyrosine immunoreactivity in hippocampal CA1 astrocytes one week after icv STZ; type: in vivo, Sprague-Dawley rats; details: for Increase in nitrotyrosine immunoreactivity in astrocytes in three areas of the CA1 region of the hippocampus: ladostigil 1.0 mg/kg daily oral, one week before to one week after icv STZ
Method: The study was performed on male Sprague-Dawley rats (Harlan, Jerusalem) weighing 320-340 g, aged 4 months, according to the guidelines of the University Committee for Institutional Animal Care and based on those of the National Institutes of Health, USA. The rats were housed for one week prior to surgery in the Animal House at an ambient temperature of 21±1° C. and a 12 hr diurnal light cycle (lights on at 0700 hr).
Male Sprague-Dawley rats (30) weighing 320-340 g, were anaesthetized by an intraperitoneal (i.p.) injection of Equithesin 0.3 ml/kg. STZ (0.5 mg) in 2 μl artificial cerebrospinal fluid (CSF) was injected into each lateral ventricle of 20 rats. The stereotaxic co-ordinates for icv injection were: 0.9 mm posterior, 1.8 mm lateral and 3.8 mm ventral from the bregma level. Control rats (10) received a bilateral injection of 2 μl artificial CSF. Half of the STZ-injected rats were given ladostigil (1 mg/kg) orally in a volume of (1 ml/kg) one week before, and for one week after icv STZ. The remainder, received 1 ml/kg water. The rats were anaesthetized with sodium pentobarbitone, perfused transcardially and the brains processed for immunocytochemistry as described below.
The brains were sectioned in a cryostat in 30 μm thick slices and stained immunochemically with the following markers: Nitrotyrosine, a marker of nitrative/oxidative stress, was stained with rabbit anti-nitrotyrosine from Upstate (Lake Placid, N.Y., USA), diluted 1:100. Glial fibrillary acidic protein (GFAP), a marker of astrocyte activation, was stained with mouse antibody, clone GA-5 from Sigma (Rehovot, Israel), diluted 1:500. […]. For rabbit antibodies, the secondary donkey anti-rabbit conjugated with horseradish peroxidase from Chemicon (Temecula, Calif., USA), was diluted 1:200. For mouse anti-GFAP, the secondary goat anti mouse conjugated with horseradish peroxidase from Sigma (Rehovot, Israel), was diluted 1:100. Colour development was obtained by reaction with diaminobenzidine and hydrogen peroxide as described in Shoham et al., Intracerebroventricular injection of streptozotocin causes neurotoxicity to myelin that contributes to spatial memory deficits in rats, Exp. Neurol. (2003) 184:1043-52. Images were obtained by bright field microscopy and quantitative assessments of appropriate markers were made by means of densitometric measurements with AnalySIS software.
Rectangular fields measuring 200 μm×100 μm were sampled from these areas in two sections containing the hippocampus from each rat. The percentage area in which nitrotyrosine immunoreactivity was seen was computed and averaged between the two sections.
Densitometic data were analyzed by univariate ANOVA followed by Duncan's post hoc test.

microglia and astrocytes = assay: Example 2: microglia and astrocyte activation at cannula penetration site after icv STZ; type: in vivo, Sprague-Dawley rats
Method: Male Sprague-Dawley rats (63) weighing 320-340 g, aged 4 months, were anesthetized by an intraperitoneal injection of Equithesin 0.3 ml/kg. STZ (0.5 mg) dissolved in 2 μl artificial cerebrospinal fluid (CSF) was injected into each lateral ventricle of 45 rats. The stereotaxic co-ordinates for icv injection were: 0.9 mm posterior, 1.8 mm lateral and 3.8 mm ventral from the bregma level. Control rats (18) received a bilateral injection of 2 μl artificial CSF. STZ-injected rats (25) were given ladostigil (1 mg/kg of the hemitartrate salt/day) orally in a volume of (1 ml/kg) from one week before, until 1 or 8 weeks after icv STZ. The remaining 20 rats received 1 ml/kg water. The rats were housed two per cage with free access to food and water until the behavioral, enzymatic and cytochemical measurements were completed.
One week after icv injection, 8 rats injected with icv CSF, 7 rats given STZ alone, and 7 treated with ladostigil were anesthetized with sodium pentobarbitone, perfused transcardially and the brains processed for immunocytochemistry. […]
Nitrotyrosine, (NT) a marker of nitrative/oxidative stress, was stained with rabbit anti-nitrotyrosine from Upstate (Lake Placid, N.Y., USA), diluted 1:100 followed by the secondary donkey anti-rabbit conjugated with horseradish peroxidase from Chemicon (Temecula, Calif., USA), was diluted 1:200. […] Images were obtained by bright field microscopy and quantitative assessments of appropriate markers were made using AnalySIS software. […]
Three distinct zones were distinguished in the vicinity of the cortical injection site after icv STZ injection containing astrocytes and microglia with differing morphology. Quantification of microglia and astrocytes in the three zones was made in sections sampled in a range of P0.2-0.8 mm from the bregma. The area of each zone containing the different types of astrocytes was measured and the percentage that each zone occupied in the wound area was calculated (Statistica software, StatSoft, USA). The classes of microglia were counted separately in each zone. […]

[3] = STZ + ladostigil 1 mg/kg orally one week before and one week after icv STZ, mean of two sections per rat
[4] = STZ + ladostigil 1 mg/kg orally, n = 5

## C#CCN[C@@H]1CCc2ccc(OC(=O)N(C)CC)cc21 [ladostigil, R(+)-6-(N-methyl,N-ethyl-carbamoyloxy)-N′-propargyl-1-aminoindan]
[1]; 0.1-1 μM
  Apoptosis in SH-SY5Y cells exposed to the NO donor Sin1: prevented apoptosis
[1]
  Apoptosis induced by Sin-1 in cultured SH-SY5Y cells: suppress apoptosis
[2]; [3]
  Nitrotyrosine Immunoreactivity, Alveus (percentage area), individual rat: 4 and 9.5 and 7 and 9 and 15
  Nitrotyrosine Immunoreactivity, Stratum oriens (percentage area), individual rat: 14.5 and 19 and 5.5 and 8.5 and 20.5
  Nitrotyrosine Immunoreactivity, Stratum radiatum (percentage area), individual rat: 1.5 and 22 and 3 and 7.5 and 11.5
[2]; [4]
  Nitrotyrosine Immunoreactivity, Alveus (percentage area), group Mean ± SEM: 8.9 ± 1.8
  Nitrotyrosine Immunoreactivity, Stratum oriens (percentage area), group Mean ± SEM: 13.6 ± 2.9
  Nitrotyrosine Immunoreactivity, Stratum radiatum (percentage area), group Mean ± SEM: 9.1 ± 3.7
[2]
  Increase in nitrotyrosine immunoreactivity in astrocytes in three areas of the CA1 region of the hippocampus: prevented the increase
[2]; listed as Ladostigil
  Increase in nitrotyrosine immunoreactivity in astrocytes in three areas of the CA1 region of the hippocampus: completely prevented the increase
Microglia and astrocytes; 1 mg/kg/day hemitartrate orally, seven days after icv STZ
  Changes in microglia and astrocytes in zones i) and iii) resulting from icv STZ: prevented the changes
Microglia and astrocytes; 1 mg/kg/day orally, seven days after icv STZ
  Density of fibrous microglia in zone ii): no effect
Microglia and astrocytes; eight weeks after icv STZ, with or without ladostigil
  Scar morphology at cannula penetration site: No differences
